In patent US11117926B2, “Cholane derivatives for use in the treatment and/or prevention of FXR and TGR5/GPBAR1 mediated diseases” (BAR PHARMACEUTICALS S.R.L., priority 2014, dated 2021):
Counter-ions that a name gives are not always drawn.

Tests used:
human GPBAR1 = molecular target: T1, human GPBAR1 (Homo sapiens, UniProt Q8TDU6); assay: GPBAR1 mediated transactivation (CRE luciferase reporter) in transfected HEK-293T cells; type: cell-based; conditions: each compound at 10 microM, transactivation activity of TLCA on CRE = 100%
T1 construct: expressed in transfected cells; host or cells: HEK-293T
T1 sequence (Q8TDU6 1-330): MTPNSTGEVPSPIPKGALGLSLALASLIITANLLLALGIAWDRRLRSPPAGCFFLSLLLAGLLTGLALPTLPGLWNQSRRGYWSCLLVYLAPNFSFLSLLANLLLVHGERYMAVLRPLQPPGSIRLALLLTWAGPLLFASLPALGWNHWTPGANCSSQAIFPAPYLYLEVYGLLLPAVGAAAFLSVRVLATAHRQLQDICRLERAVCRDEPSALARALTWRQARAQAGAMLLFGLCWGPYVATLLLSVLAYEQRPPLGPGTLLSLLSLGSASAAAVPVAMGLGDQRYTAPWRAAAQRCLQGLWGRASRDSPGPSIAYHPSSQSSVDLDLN
Protocol: (§1) Each compound was tested at the concentration of 10 microM and transactivation activity of CDCA on FXR and TLCA on CRE (i.e. TGR5/GPBAR1) was considered equal to 100%.
(§2) Biological Activities. Activity of selected compounds was tested in vitro using a whole cell model transfected with a reporter genes to establish selectivity of compounds shown in table 1 toward FXR and TGR5/GPBAR1 in comparison with chenodeoxycholic acid (CDCA) and TLCA. CDCA is a primary bile acid that functions as an endogenous ligand for FXR, while TLCA is a physiological ligand for TGR5/GPBAR1. In this assay, HepG2 cells (a liver-derived cell line) were cultured at 37° C. in minimum essential medium with Earl's salts containing 10% fetal bovine serum (FBS), 1% L-glutamine, and 1% penicillin/streptomycin. […] The transfection experiments were performed using Fugene HD according to manufactured specifications. Cells were plated in a 24-well plate at 5×10^4 cells/well. For FXR mediated transactivation, HepG2 cells were transfected with 100 ng of pSG5-FXR, 100 ng of pSG5-RXR, 100 ng of pGL4.70 a vector encoding the human Renilla gene and 250 ng of the reporter vector p(hsp27)-TK-LUC containing the FXR response element IR1 cloned from the promoter of heat shock protein 27 (hsp27).
(§3) At 24 h post-transfection, cells were stimulated for 18 h with 10 μM TLCA as a control agent or putative GPBAR1 agonists as the same concentration. After treatments, cells were lysed in 100 μL of lysis buffer (25 mM Tris-phosphate, pH 7.8; 2 mM DTT; 10% glycerol; 1% Triton X-100), and 20 μL of cellular lysate was assayed for luciferase activity using the luciferase assay system. Luminescence was measured using Glomax 20/20 luminometer. Luciferase activities were normalized against Renilla activities. Antagonism against FXR of GPBAR1/TGR5 was measured as percent of activity in transactivation assay suing activity of TLCA as example of agonism.

FXR = molecular target: T2, FXR (Homo sapiens, UniProt Q96RI1); assay: FXR mediated transactivation (luciferase reporter) in transfected HepG2 cells; type: cell-based; conditions: each compound at 10 microM, transactivation activity of CDCA on FXR = 100%
T2 construct: expressed in transfected cells; host or cells: HepG2
T2 sequence (Q96RI1 1-486): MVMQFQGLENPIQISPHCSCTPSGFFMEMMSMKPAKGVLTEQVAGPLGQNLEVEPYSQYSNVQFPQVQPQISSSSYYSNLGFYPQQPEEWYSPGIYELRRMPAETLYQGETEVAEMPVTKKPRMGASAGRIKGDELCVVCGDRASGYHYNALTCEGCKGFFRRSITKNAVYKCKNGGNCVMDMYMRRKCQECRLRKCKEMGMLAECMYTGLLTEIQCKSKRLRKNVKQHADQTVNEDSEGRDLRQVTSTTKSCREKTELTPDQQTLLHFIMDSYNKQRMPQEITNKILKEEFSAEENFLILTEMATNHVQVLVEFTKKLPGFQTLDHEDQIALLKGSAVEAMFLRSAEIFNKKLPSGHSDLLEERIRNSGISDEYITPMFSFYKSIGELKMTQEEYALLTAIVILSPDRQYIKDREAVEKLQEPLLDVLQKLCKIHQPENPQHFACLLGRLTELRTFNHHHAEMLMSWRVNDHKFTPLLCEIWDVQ
T2 sequence (P19793 1-462 partner): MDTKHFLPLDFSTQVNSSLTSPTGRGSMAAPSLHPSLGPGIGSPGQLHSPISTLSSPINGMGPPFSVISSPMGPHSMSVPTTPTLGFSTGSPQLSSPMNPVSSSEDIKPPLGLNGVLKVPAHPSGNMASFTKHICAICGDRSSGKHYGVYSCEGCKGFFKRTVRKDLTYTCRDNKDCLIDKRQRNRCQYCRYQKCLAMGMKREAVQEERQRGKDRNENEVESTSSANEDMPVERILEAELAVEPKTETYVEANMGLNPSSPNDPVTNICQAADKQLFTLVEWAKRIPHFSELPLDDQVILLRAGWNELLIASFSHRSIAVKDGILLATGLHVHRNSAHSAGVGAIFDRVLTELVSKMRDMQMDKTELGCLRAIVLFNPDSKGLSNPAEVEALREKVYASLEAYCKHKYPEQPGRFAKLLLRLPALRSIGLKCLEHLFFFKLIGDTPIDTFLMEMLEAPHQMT
Protocol: as §1, §2, §3

SMILES	GPBAR1 (% of activity in comparison to 10 μM TLCA) (human GPBAR1)	FXR (% of activity in comparison to 10 μM CDCA) (FXR)
C[C@H](CCOS(=O)(=O)[O-])[C@H]1CC[C@H]2[C@@H]3[C@@H](O)C[C@@H]4C[C@H](O)CC[C@]4(C)[C@H]3CC[C@]12C.[Na+] [BAR106, 3α,7β-dihydroxy-24-nor-5β-cholan-23-yl-23-sodium sulfate]	19.0 ± 1.3%	0%
CC[C@H]1[C@@H](O)[C@@H]2[C@H](CC[C@]3(C)[C@@H]([C@H](C)CCCO)CC[C@@H]23)[C@@]2(C)CC[C@H](O)C[C@@H]12 [BAR706, 6α-ethyl-3β,7α-dihydroxy-5β-cholan-24-ol]	66.05 ± 7.6%	153 ± 9.0%
CC[C@@H]1[C@H](O)[C@@H]2[C@H](CC[C@]3(C)[C@@H]([C@H](C)CCCO)CC[C@@H]23)[C@@]2(C)CCCC[C@@H]12 [BAR702, 6β-ethyl-7β-hydroxy-5β-cholan-24-ol]	35.8 ± 1.2%	11.7 ± 0.8%
CC[C@H]1[C@@H](O)C2C3CC[C@H]([C@H](C)CCO)[C@@]3(C)CCC2[C@@]2(C)CCCC[C@@H]12 (stereo partly drawn) [BARn701, 6α-ethyl-7α-hydroxy-24-nor-5β-cholan-23-ol]	55 ± 1.0%	90 ± 22%
CC[C@H]1[C@@H](O)[C@@H]2[C@H](CC[C@]3(C)[C@@H]([C@H](C)CCCO)CC[C@@H]23)[C@@]2(C)CCCC[C@@H]12 [BAR701, 6α-ethyl-7α-hydroxy-5β-cholan-24-ol]	50.2 ± 2.3%	101.3 ± 10.1%
CC[C@H]1[C@@H](O)C2C3CC[C@H]([C@H](C)CCCCC(=O)O)[C@@]3(C)CCC2[C@@]2(C)CC[C@@H](O)C[C@@H]12 (stereo partly drawn) [BAR802, 6α-ethyl-3α, 7α-dihydroxy-25, 26-bishomo-5β-cholan-26-oic acid]	56 ± 5.0%	11.5 ± 8.5%
C[C@H](CCCOS(=O)(=O)O)[C@H]1CCC2C3C(CC[C@@]21C)[C@@]1(C)CCCC[C@H]1C[C@H]3O (stereo partly drawn) [BAR402, 7α-hydroxy-5β-cholan-24-yl-24-sodium sulfate]	28.0 ± 1.8%	336.4 ± 20.8%
CC[C@H]1[C@H](O)[C@@H]2[C@H](CC[C@]3(C)[C@@H]([C@H](C)CCCO)CC[C@@H]23)[C@@]2(C)CC[C@H](O)C[C@@H]12 [BAR707, 6α-ethyl-3β,7β-dihydroxy-5β-cholan-24-ol]	65 ± 6.0%	92.5 ± 7.5%
C[C@H](CCCCC(=O)O)[C@H]1CCC2C3C(CC[C@@]21C)[C@@]1(C)CC[C@@H](O)C[C@H]1C[C@@H]3O (stereo partly drawn) [BAR305, 3α, 7β-dihydroxy-25, 26-bishomo-5β-cholan-26-oic acid]	23.9 ± 4.0%	0%
CC[C@H]1[C@@H](O)C2C3CC[C@H]([C@H](C)CCOS(=O)(=O)O)[C@@]3(C)CCC2[C@@]2(C)CC[C@H](O)C[C@@H]12 (stereo partly drawn) [BARn706solf, 6α-ethyl-3β,7α-dihydroxy-24-nor-5β-cholan-23-yl 23-sodium sulfate]	71.5 ± 0.5%	–
